From US5760001A, “Cytokine restraining agents and methods of use in pathologies and conditions associated with altered cytokine levels” (Trega Biosciences, Inc., priority 1995, dated 1998)

Key:
Assay type in all cases: in vivo
Male Shelton rabbits = experiment: Morphine-induced respiratory depression; details: 10 + 20 + 20 μg/kg/rabbit iv; at end of experiment (80 min)
Method: Male Shelton rabbits (3-4 kg) were restrained and fitted around the thorax, just behind the front limbs, with a respiration transducer (Model F-RCT; Grass Instruments; Quincy Mass.). The transducer was connected to a grass polygraph via an EKG cable. An intravenous line was established for drug administration by cannulating the marginal ear vein using a 25G butterfly needle.
Rabbit breathing was allowed to stabilize, then. morphine sulfate (2 mg/kg in 0.5 ml saline) was administered by intravenous (iv) injection and respiratory rate and depth were monitored for 10 min. A second dose of morphine was administered, then, after 10 min, EX-2 or EX-3 (10 μg/kg in 0.5 ml saline) was administered, iv, and rabbits were monitored for 20 min. Two additional doses of EX-2 or EX-3 (20 μg/kg in 1.0 ml saline) were administered at 20 min intervals, i.e., 40 min and 60 min after the first morphine injection.
Results were calculated as the percent change from baseline values and are expressed as the difference of the mean value of the treated group minus the mean value of the control group at the end of the experiment (80 min).

male Sprague-Dawley rats = experiment: Streptozotocin-induced diabetes; details: STZ 65 mg/kg iv; EX-2 150 μg/kg every 8 hr for 72 hr
Method: Male Sprague-Dawley rats were given 65 mg/kg of streptozotocin (STZ) intravenously through the tall vein. Rats were divided into two groups. The first group was administered EX-2, 150 μg/kg every 8 hr for 72 hr and the second group was a control. Blood samples were withdrawn under ether anesthesia every 8 hr for the first 72 hr, then every 12 hr or 24 hr until the end of the observation period. Plasma samples were assayed for glucose using a glucose assay kit (Trinder, Sigma Chemical Co.). As shown in Table VI below EX-2 effect a 72% reduction in blood glucose levels.

[1] = system: Adult male Sprague-Dawley rats; experiment: Disuse deconditioning (tail suspension) in rats; details: 1 or 5 μg/kg IP twice daily
Method: Adult male Sprague-Dawley rats (355-365 g) were used in this study. Animals were housed individually in standard rat cages and were acclimated on a treadmill for 4 days. The next day, a baseline tail bleed was performed, followed by a maximal treadmill stress test the day after. The day following the stress test, the animals were divided into the appropriate treatment and control groups and the animals were suspended by their tails in suspension cages, which simulates weightlessness and, therefore, deconditions the animals. Another group of control animals was placed in standard rat cages with grated flooring similar to that utilized in the suspension cages. All animals were housed one per cage and supplied with food and water ad libitum. Body weights and food consumptions were measured daily Animals received twice daily IP injections of 1 μg/kg or 5 μg/kg body weight of EX-2 (treated), or 1 ml/kg body weight of saline (control). On day 10, all animals were stress tested on the treadmill until they reached exhaustion. Data on maximum VO2 and running time were collected and compared to pre-suspension results. On day 14, all animals were sacrificed, and blood, tissues, and organs were collected for further analysis. All procedures and tests were performed blind to avoid researcher subjectivity. Statistical significance (p<0.05) between groups was evaluated by ANOVA with Student-Newman-Keuls test for multiple comparisons. All data are reported as the mean±standard error (SE).
All of the animals were subjected to the stress tests, which measured exercise time and maximal VO2. As well, levels of the oxidative enzyme soleus citrate synthase and tibia bone density were measured.
Soleus citrate synthase was attenuated by 50%.

female Balb/c mice = experiment: Arachidonic acid-induced ear swelling; details: 100 μg/mouse IP 30 min prior to AA; 60 min after AA application
Method: Experiments were performed using female Balb/c mice weighing 18-23 grams. Saline or 100 μg EX-2 or EX-3 was administered IP, 30 min prior to topical application of arachidonic acid (AA). A 10 μl pipet was used to apply 10 μl AA solution (100 mg/ml ethanol; Calbiochem-Novabiochem; San Diego Calif.) to the inner and outer surfaces of the right ear of each mouse. Ten μl ethanol, alone, was applied to the inner and outer surface of the left ear of each mouse.
Ear thickness was measured with a hand-held spring loaded caliper immediately before and 60 min after AA application. Increase in ear thickness was calculated by subtracting the change observed in the control ear from the change observed in AA-treated ear. The value for each group (saline and control) is the average of the swelling observed in the individual mice in each group. The percent reduction of swelling is based on the swelling observed in the saline control group.

adult female Balb/c mice = experiment: LPS-induced lethality (IP dosing); details: 11 × 300 μg/mouse IP (3.3 mg), every 4 hr; 0.6 mg LPS; vs control mice
Method: These experiments were performed based on information reported by Rivier et al., Endocrinology 125:2800-2805 (1989), which is incorporated herein by reference. Adult female Balb/c mice were provided food and water ad libitum. Mice were injected IP every four hr for 40 hr with 30 to 300 μg EX-2, EX-3 or EX-4 in 0.2 ml saline (treated group) or with 0.2 ml saline, alone (control group) (10 mice per group). Immediately following the first injection, 0.6 mg LPS endotoxin in 0.2 ml saline was administered to each mouse. Following LPS injection, EX-2 or saline was administered to the treated mice or the control mice, respectively, every 4 hr for 36 hr.

TNF-α = experiment: Reduction of LPS-induced TNF levels in mice (IP dosing); details: 30 μg/mouse IP before LPS 5 mg/kg IP; vs untreated control mice
Method: Balb/c female mice weighing approximately 20 g were placed into two groups, a control group and a treated group. Five mg/kg of LPS in 0.9% saline was administered by intraperitoneal (IP) injection into the control mice. Mice in the treated group were first injected IP with 30 μg EX-2 or 150 μg EX-3 in saline, then, one mn after EX-2 or EX-3 was administered, the mice received LPS as described for the control group.
Blood samples were collected from the orbital sinus of treated and control mice at various times up to four hr after LPS was administered. The plasma was separated by centrifugation at 3000×g for 5 min, then diluted with four volumes of 1× phosphate buffer saline (pH 7.4) containing 1% bovine serum albumin. A 100 μl sample of serum was assayed by ELISA for TNF-α (Genzyme; Cambridge Mass.).
The mean (±SEM) TNF-α level in six mice from each group was determined and the percent reduction in TNF levels was calculated.

Ac-Nle-Gln-His-(D)Phe-Arg-(D)Trp-Gly-NH2 [EX-2]
Reduction in Morphine-induced Respiratory Depression (Male Shelton rabbits): 50% | STZ Diabetes: Blood Glucose (mg/dl), % Reduction of induced increase (male Sprague-Dawley rats): 72% | Soleus Citrate Synthase, % Attenuation of suspension-induced decrease ([1]; 14 days suspension): 50% | Tibia Bone Density, % Attenuation of suspension-induced decrease ([1]; 14 days suspension): 50% | Exercise Time, % Attenuation of suspension-induced decrease ([1]; treadmill stress test day 10): 44% | Maximal VO2, % Attenuation of suspension-induced decrease ([1]; treadmill stress test day 10): 80% | Reduction in arachidonic acid-induced Ear Swelling (female Balb/c mice): 72% | Inhibition of LPS-induced Lethality (increase in survival) (adult female Balb/c mice): 83% | Reduction in TNF levels (TNF-α): 50%
